Experimental data as given in US20260116874A1, “HETEROAROMATIC INDOLESULFONAMIDES” (SEED Therapeutics, Inc., priority 2023, published 2026).
pIC50: −log10 of the molar value.

Tested on: HCT116 colorectal cells
Test: Cell viability assay (CellTiter-Glo) in HCT116 cells
Format: cell-based
Settings: Homo sapiens, HCT-116, 72h, CellTiter-Glo, read-out: HCT116 Assay (IC50)
Protocol: HCT116 colorectal cells were used in these experiments. HCT116 cells were obtained from ATCC. The CellTiter-Glo® Luminescent Cell Viability Assay Reagent was obtained from Promega.
Into a 96-well plate, 3000 HCT116 cells were seeded with 100 μL of media (McCoy's 5A Medium supplemented with 10% FBS, 100 units penicillin, and 100 μg streptomycin per mL) 24h before the experiment. For compound treatment, the liquid handling system-Pico machine was used to prepare all the compounds. Each master plate contained serial dilution of 2 compounds, including the control compound E7820. 10 mM compound stock was added to each well of the assay plate to give final concentrations of […], 0.003, 0.002 and 0 μM. Each concentration was tested in triplicate. After 72h, cell viability was determined using CellTiter-Glo Luminescent Cell Viability Assay Reagent following the manufacturer's recommended protocol. Briefly, equilibrate the assay plate and its contents at room temperature for approximately 30 minutes. 100 μL of CellTiter-Glo reagent was added to each well of the assay plate and the contents were mixed for 2 minutes at 500 rpm on an orbital shaker to induce cell lysis (Fisherbrand). The plate was incubated at room temperature for 10 minutes to stabilize luminescent signal. Then the plate was immediately placed in a plate reader (PerkinElmer Multimode Plate Reader Envision2105) and the luminescence signal (0.5 second per well integration time) was determined. IC50 values were calculated using Graphpad Prism 9 software.
Cell viability assays were performed to compare the potency of Compound 1 to Compound 143.

| SMILES | pIC50 |
| --- | --- |
| Cc1ncc(S(=O)(=O)Nc2ccc(Cl)c3c(Cl)c[nH]c23)s1 [Compound 4, N-(3,4-dichloro-1H-indol-7-yl)-2-methyl-thiazole-5-sulfonamide] | 6.00 to 6.30 |
| Cc1ncc(S(=O)(=O)Nc2ccc(C)c3c(C(F)F)c[nH]c23)s1 [Compound 5, N-(3-(difluoromethyl)-4-methyl-1H-indol-7-yl)-2-methylthiazole-5-sulfonamide] | 6.00 to 6.30 |
| Cc1ncc(S(=O)(=O)Nc2ccc(Cl)c3c(C#N)c[nH]c23)s1 [Compound 6, N-(4-chloro-3-cyano-1H-indol-7-yl)-2-methyl-thiazole-5-sulfonamide] | > 6.30 |
| COCCc1ncc(S(=O)(=O)Nc2ccc(C)c3c(C#N)c[nH]c23)s1 [Compound 7, N-(3-cyano-4-methyl-1H-indol-7-yl)-2-(2-methoxyethyl)thiazole-5-sulfonamide] | > 6.30 |
| Cc1ncc(CS(=O)(=O)Nc2ccc(C)c3c(C#N)c[nH]c23)s1 [Compound 8, N-(3-cyano-4-methyl-1H-indol-7-yl)-1-(2-methylthiazol-5-yl)methanesulfonamide] | < 6.00 |
| Cc1ncc(S(=O)(=O)Nc2cccc3c(Cl)c[nH]c23)s1 [Compound 9, N-(3-chloro-1H-indol-7-yl)-2-methylthiazole-5-sulfonamide] | 6.00 to 6.30 |
| Cc1ccc(NS(=O)(=O)c2cnc(C(F)(F)F)s2)c2[nH]cc(C#N)c12 [Compound 10, N-(3-cyano-4-methyl-1H-indol-7-yl)-2-(trifluoromethyl)thiazole-5-sulfonamide] | < 6.00 |
| O=S(=O)(Nc1ccc(Cl)c2c(Cl)c[nH]c12)c1cnc(C(F)(F)F)s1 [Compound 11, N-(3,4-dichloro-1H-indol-7-yl)-2-(trifluoromethyl)thiazole-5-sulfonamide] | < 6.00 |
| Cc1ccc(NS(=O)(=O)c2cnc(C3CCN(C)CC3)s2)c2[nH]cc(C#N)c12 [Compound 12, N-(3-cyano-4-methyl-1H-indol-7-yl)-2-(1-methyl-4-piperidyl)thiazole-5-sulfonamide] | < 6.00 |
| O=S(=O)(Nc1cccc2c(Cl)c[nH]c12)c1cnc(C(F)F)s1 [Compound 13, N-(3-chloro-1H-indol-7-yl)-2-(difluoromethyl)thiazole-5-sulfonamide] | 6.00 to 6.30 |
| O=S(=O)(Nc1ccc(Cl)c2cc[nH]c12)c1cnc(C2CCCNC2)s1 (stereo not shown) [Compound 15, N-(4-chloro-1H-indol-7-yl)-2-(piperidin-3-yl)thiazole-5-sulfonamide] | 6.00 to 6.30 |
| CN1CCCC(c2ncc(S(=O)(=O)Nc3ccc(Cl)c4cc[nH]c34)s2)C1 (stereo not shown) [Compound 16, N-(4-chloro-1H-indol-7-yl)-2-(1-methylpiperidin-3-yl)thiazole-5-sulfonamide] | < 6.00 |
| Cc1ccc(NS(=O)(=O)c2cnc(N3CCOCC3)s2)c2[nH]cc(C#N)c12 [Compound 17, N-(3-cyano-4-methyl-1H-indol-7-yl)-2-morpholino-thiazole-5-sulfonamide] | 6.00 to 6.30 |
| Cc1ccc(NS(=O)(=O)c2cnc(NC(=O)OC(C)(C)C)s2)c2[nH]cc(C#N)c12 [Compound 18, tert-butyl (5-(N-(3-cyano-4-methyl-1H-indol-7-yl)sulfamoyl)thiazol-2-yl)carbamate] | 6.00 to 6.30 |
| Cc1ccc(NS(=O)(=O)c2cnc(N)s2)c2[nH]cc(C#N)c12 [Compound 19, 2-amino-N-(3-cyano-4-methyl-1H-indol-7-yl)thiazole-5-sulfonamide] | 6.00 to 6.30 |
| Cc1nc(C)c(S(=O)(=O)Nc2ccc(C)c3c(C#N)c[nH]c23)s1 [Compound 21, N-(3-cyano-4-methyl-1H-indol-7-yl)-2,4-dimethylthiazole-5-sulfonamide] | 6.00 to 6.30 |
| Cc1ccc(NS(=O)(=O)c2cnc(C(C)N(C)C)s2)c2[nH]cc(C#N)c12 (stereo not shown) [Compound 23, N-(3-cyano-4-methyl-1H-indol-7-yl)-2-(1-(dimethylamino)ethyl)thiazole-5-sulfonamide] | 6.00 to 6.30 |

| SMILES | pIC50 |
| --- | --- |
| Cc1ccc(NS(=O)(=O)c2cnc(CN3CCC(C#N)C3)s2)c2[nH]cc(C#N)c12 (stereo not shown) [Compound 24, N-(3-cyano-4-methyl-1H-indol-7-yl)-2-((3-cyanopyrrolidin-1-yl)methyl)thiazole-5-sulfonamide] | 6.00 to 6.30 |
| Cc1ccc(NS(=O)(=O)c2cnc(C3CCN(C(=O)OC(C)(C)C)CC3)s2)c2[nH]cc(C#N)c12 [Compound 25, tert-butyl 4-[5-[(3-cyano-4-methyl-1H-indol-7-yl)sulfamoyl]thiazol-2-yl]piperidine-1-carboxylate] | < 6.00 |
| Cc1ccc(NS(=O)(=O)c2cnc(C3CCNCC3)s2)c2[nH]cc(C#N)c12 [Compound 26, N-(3-cyano-4-methyl-1H-indol-7-yl)-2-(4-piperidyl)thiazole-5-sulfonamide] | < 6.00 |
| Cc1ccc(NS(=O)(=O)c2cnc(C3CCCNC3)s2)c2[nH]cc(C#N)c12 (stereo not shown) [Compound 27, N-(3-cyano-4-methyl-1H-indol-7-yl)-2-(piperidin-3-yl)thiazole-5-sulfonamide] | < 6.00 |
| Cc1ccc(NS(=O)(=O)c2cnc(C3CCCN(C)C3)s2)c2[nH]cc(C#N)c12 (stereo not shown) [Compound 28, N-(3-cyano-4-methyl-1H-indol-7-yl)-2-(1-methylpiperidin-3-yl)thiazole-5-sulfonamide] | < 6.00 |
| CC(=O)N1CCC(c2ncc(S(=O)(=O)Nc3ccc(C)c4c(C#N)c[nH]c34)s2)CC1 [Compound 29, 2-(1-acetyl-4-piperidyl)-N-(3-cyano-4-methyl-1H-indol-7-yl)thiazole-5-sulfonamide] | < 6.00 |
| Cc1ncc(S(=O)(=O)N(C)c2ccc(C)c3c(C#N)c[nH]c23)s1 [Compound 30, N-(3-cyano-4-methyl-1H-indol-7-yl)-N,2-dimethyl-thiazole-5-sulfonamide] | < 6.00 |
| Cc1ccc(NS(=O)(=O)c2cnc(C3(N4CCOCC4)CCC3)s2)c2[nH]cc(C#N)c12 [Compound 32, N-(3-cyano-4-methyl-1H-indol-7-yl)-2-(1-morpholinocyclobutyl)thiazole-5-sulfonamide] | 6.00 to 6.30 |
| Cc1ncc(S(=N)(=O)Nc2ccc(C)c3c(C#N)c[nH]c23)s1 (stereo not shown) [Compound 33, 4-methyl-7-[[(2-methylthiazol-5-yl)sulfonimidoyl]amino]-1H-indole-3-carbonitrile] | < 6.00 |
| CC(=O)Nc1ncc(S(=O)(=O)Nc2ccc(C)c3c(C#N)c[nH]c23)s1 [Compound 34, N-(5-(N-(3-cyano-4-methyl-1H-indol-7-yl)sulfamoyl)thiazol-2-yl)acetamide] | 6.00 to 6.30 |
| Cc1ccc(NS(=O)(=O)c2cnc(C(C)(C)O)s2)c2[nH]cc(C#N)c12 [Compound 35, N-(3-cyano-4-methyl-1H-indol-7-yl)-2-(1-hydroxy-1-methyl-ethyl)thiazole-5-sulfonamide] | 6.00 to 6.30 |
| Cc1ccc(NS(=O)(=O)c2ccn3cc(C#N)nc3c2)c2[nH]cc(C#N)c12 [Compound 40] | 6.00 to 6.30 |
| Cc1ccc(NS(=O)(=O)c2ccc3nccn3c2)c2[nH]cc(C#N)c12 [Compound 41] | 6.00 to 6.30 |
| Cc1ccc(NS(=O)(=O)c2ccc3nc(C#N)cn3c2)c2[nH]cc(C#N)c12 [Compound 42] | < 6.00 |
| Cc1ccc(NS(=O)(=O)c2cnn3c2CCC3)c2[nH]cc(C#N)c12 [Compound 43] | 6.00 to 6.30 |
| Cc1ccc(NS(=O)(=O)c2cc3n(n2)CCC3)c2[nH]cc(C#N)c12 [Compound 44] | 6.00 to 6.30 |
| Cc1ccc(NS(=O)(=O)c2cnc(OCC(=O)N3CCCC3C#N)s2)c2[nH]cc(C#N)c12 (stereo not shown) [Compound 65] | < 6.00 |
